Patent US20240352309A1, “FLUORESCENT DYE, AND PREPARATION METHOD THEREFOR AND USE THEREOF” (FLUORESCENCE DIAGNOSIS (SHANGHAI) BIOTECH COMPANY LTD., priority 2021, published 2024)

What was measured:
[1] = Fluorescence emission in glycerol and methanol (Test Example 1); assay type: physicochemical
Experimental: The fluorescent dye (molecular rotors) prepared in Examples dye1-dye42 were dissolved in DMSO each to prepare a mother solution with a concentration of 1×10^−2 M, and each mother solution was added to glycerol and methanol respectively and was mixed well, and a solution with a final concentration of 1×10^−5 M was prepared.

[2] = Emission spectra in glycerol, wavelength adjustment (Test Example 3); assay type: physicochemical; details: 1×10^−5 M, dye13 vs dye12, ring sulfur turned into nitrogen
Experimental: The dye5, dye6, dye11, dye12, dye13, dye14, dye39 and dye42 were added into glycerol to prepare a solution with a final concentration of 1×10^−5 M, fluorescent dyes were excited with corresponding maximum excitation wavelength so as to obtain the emission spectra, and some of the emission spectra were normalized.

[3] = system: RNA aptamer in stable cell line (293T/17); experiment: Flow detection of cells expressing RNA aptamer (Test Example 6); assay type: cell-based; details: 1 μM dye in PBS, 5 minutes

For `CN(CCO)c1cc2sc(/C=C3\NC(=S)NC3=O)cc2s1` [dye13], the “Fluorescence intensity ratio in glycerol and methanol” value ([1]; 1×10^−5 M in glycerol vs methanol, maximum excitation wavelength) was 874, the Emission wavelength ([1]; 1×10^−5 M, excited at maximum excitation wavelength of each dye) was 630 nm and the “shortening of emission wavelength” value [2] was 20 nm. For the same compound, the “dye background fluorescence before binding” value [3] was “very low” and the “fluorescence after binding to RNA aptamer in cells” value [3] was “notably activated”.
